Measurements as given in patent publication US20090105235A1, “INSECTICIDAL COMPOSITIONS WITH IMPROVED EFFECT” (Bayer CropScience AG, priority 2005, published 2009).
Like-named read-outs stand apart in the source and are kept apart here.

Key:
Type in all cases: in vivo
[1] = tested on: Aphis gossypii; experiment: Aphis gossypii test (Example E), cotton leaves sprayed; settings: for Kill rate after 6 days, With penetrant and AS: with penetrant and AS (in each case 1000 ppm)
Description: (§1) To produce a suitable preparation of active compound, 1 part by weight of active compound is mixed with the stated amounts of solvent and emulsifier, and the concentrate is diluted with emulsifier-containing water to the desired concentration. If addition of ammonium salts or ammonium salts and penetrant is required, the appropriate amount is added by pipette after dilution of the respective finished preparation solution (in each case 1000 ppm).
Cotton leaves (Gossypium hirsutum) which are heavily infested by the cotton aphid (Aphis gossypii) are sprayed with an active compound preparation at the desired concentration.
After the desired period of time, the kill in % is determined. 100% means that all aphids have been killed; 0% means that none of the aphids have been killed.

[2] = tested on: Myzus persicae; experiment: Myzus persicae test (Example D), bell pepper plants sprayed; settings: for pest or weed control at 0.8 ppm / pest or weed control at 0.16 ppm / pest or weed control at 4 ppm: Myzus persicae, 144 h, read-out: Kill rate after 6 days, Without penetrant and AS; for Kill rate after 6 days, With penetrant and AS: with penetrant and AS (in each case 1000 ppm)
Description: as §1
Bell pepper plants (Capsicum annuum) which are heavily infested by the green peach aphid (Myzus persicaei) are treated by spraying with the active compound preparation at the desired concentration.
(§2) After the desired period of time, the kill in % is determined. 100% means that all animals have been killed; 0% means that none of the animals have been killed.

[3] = tested on: Myzus persicae; experiment: Myzus persicae test (Example G), bell pepper, spraying upper side of leaf; settings: active compound 2.4 g/ha
Description: as §1, with “with” for “with emulsifier-containing”
Single-leaf bell pepper plants (Capsicum annuum) which are heavily infested by the green peach aphid (Myzus persicaei) are treated by spraying of the upper side of the leaf with the active compound preparation at the desired concentration.
as §2

[4] = tested on: Aphis gossypii; experiment: Aphis gossypii test (APHIGO contact) (Example H), cotton, spraying underside of leaf; settings: active compound 0.192 g/ha
Description: as §1, with “with” for “with emulsifier-containing”
Single-leaf cotton plants (Gossypium hirsutum) which are heavily infested by the cotton aphid (Aphis gossypii) are treated by spraying of the underside of the leaf with the active compound preparation at the desired concentration.
as §2

[5] = tested on: Myzus persicae; experiment: Myzus persicae test (Example F), bell pepper, spraying underside of leaf; settings: active compound 0.48 g/ha
Description: as §1, with “with” for “with emulsifier-containing”
Single-leaf bell pepper plants (Capsicum annuum) which are heavily infested by the green peach aphid (Myzus persicaei) are treated by spraying of the underside of the leaf with the active compound preparation at the desired concentration.
as §2

[6] = tested on: Aphis gossypii; experiment: Aphis gossypii test (Example A), cotton, spraying upper side of leaf; settings: active compound 24 g/ha, spray volume 600 l/ha
Description: as §1, with “with” for “with emulsifier-containing”, “ammonium salts, phosphonium” for “ammonium”, “penetrants” for “ammonium salts and penetrant”, “solution.” for “solution (in each case 1000 ppm).”
Single-leaf cotton plants (Gossypium hirsutum) which are heavily infested by the cotton aphid (Aphis gossypii) are treated by spraying of the upper side of the leaf (spray volume 600 l/ha) with the active compound preparation at the desired concentration.
as §2

[7] = tested on: Aphis gossypii; experiment: Aphis gossypii test (APHIGO translaminar) (Example I), cotton, spraying upper side of leaf; settings: active compound 0.192 g/ha
Description: as §1, with “with” for “with emulsifier-containing”
Single-leaf cotton plants (Gossypium hirsutum) which are heavily infested by the cotton aphid (Aphis gossypii) are treated by spraying of the upper side of the leaf with the active compound preparation at the desired concentration.
as §2

[8] = Aphis gossypii, 144 h, active compound 0.8 ppm, without penetrant and AS, 6 days, read-out: Kill rate after 6 days, Without penetrant and AS
[9] = active compound 0.8 ppm, 6 days
[10] = with penetrant and AS (in each case 1000 ppm)
[11] = Aphis gossypii, 144 h, read-out: Kill rate after 6 days, Without penetrant and AS
[12] = Aphis gossypii, 144 h, active compound 0.16 ppm, without penetrant and AS, 6 days, read-out: Kill rate after 6 days, Without penetrant and AS
[13] = active compound 0.16 ppm, 6 days
[14] = active compound 0.16 ppm, without penetrant and AS, 6 days
[15] = active compound 0.8 ppm, without penetrant and AS, 6 days

C#CCN(CCN/C(=N/[N+](=O)[O-])OC)Cc1ccc(Cl)nc1 [Ih-3]
pest or weed control at 0.8 ppm [1, 8]: 15%
Kill rate after 6 days, With penetrant and AS [1, 9]: 55%

CN/C(=N\[N+](=O)[O-])NCc1cnc(Cl)s1 [Ia-2, clothianidin, reference compound]
pest or weed control at 0.8 ppm [2]: 60%
Kill rate after 6 days, With penetrant and AS [2, 9]: 100%

CS/C(=N\[N+](=O)[O-])NCCN(Cc1ccc(Cl)nc1)CC1CC1 [Ih-4]
pest or weed control at 0.8 ppm [1, 8]: 15%
Kill rate after 6 days, With penetrant and AS [1, 9]: 45%

C/N=C(\C(=C/N(C)C)[N+](=O)[O-])N(C)Cc1ccc(Cl)nc1 [Ic-1]
Kill rate after 7 days, With penetrant and AS [3, 10]: 53%
Kill rate after 7 days, Without penetrant and AS ([3]; without penetrant and AS): 0%
pest or weed control at 0.8 ppm [1, 11]: 5%
Kill rate after 6 days, With penetrant and AS [1, 9]: 60%
Kill rate after 7 days, With penetrant and AS [4, 10]: 70%
Kill rate after 7 days, Without penetrant and AS ([4]; without penetrant and AS): 0%
pest or weed control at 0.8 ppm [2]: 0%
Kill rate after 6 days, With penetrant and AS [2, 9]: 95%
Kill rate after 7 days, With penetrant and AS [5, 10]: 67%
Kill rate after 7 days, Without penetrant and AS ([5]; without penetrant and AS): 0%

CCN(Cc1ccc(Cl)nc1)/C(=C/[N+](=O)[O-])NC [Ia-6, nitenpyram, reference compound]
pest or weed control at 0.8 ppm [1, 11]: 25%
Kill rate after 6 days, With penetrant and AS [1, 9]: 99%
pest or weed control at 0.8 ppm [2]: 10%
Kill rate after 6 days, With penetrant and AS [2, 9]: 90%

O=C1C=C(NCc2ccc(Cl)nc2)CO1 [If-2]
pest or weed control at 0.16 ppm [1, 12]: 0%
Kill rate after 6 days, With penetrant and AS [1, 13]: 50%
pest or weed control at 0.16 ppm [2, 14]: 0%
Kill rate after 6 days, With penetrant and AS [2, 13]: 50%

CN/C(=C\[N+](=O)[O-])C(C)c1ccc(Cl)nc1 (stereo not drawn) [Id-1]
pest or weed control at 0.8 ppm [1, 11]: 0%
Kill rate after 6 days, With penetrant and AS [1, 9]: 55%
pest or weed control at 0.8 ppm [2]: 0%
Kill rate after 6 days, With penetrant and AS [2, 9]: 90%

C#CCN(CCN/C(=C/[N+](=O)[O-])OC)Cc1ccc(Cl)nc1 [Ih-2]
pest or weed control at 0.8 ppm [1, 8]: 65%
Kill rate after 6 days, With penetrant and AS [1, 9]: 90%
pest or weed control at 0.8 ppm [2, 15]: 80%
Kill rate after 6 days, With penetrant and AS [2, 9]: 98%

O=C/C(=C1/NCCN1Cc1ccc(Cl)nc1)[N+](=O)[O-] [Ie-2]
pest or weed control at 0.16 ppm [1, 11]: 10%
Kill rate after 6 days, With penetrant and AS [1, 13]: 95%
pest or weed control at 0.16 ppm [2]: 10%
Kill rate after 6 days, With penetrant and AS [2, 13]: 95%

N#C/N=C1\SCCN1Cc1ccc(Cl)nc1 [Ia-3, thiacloprid, reference compound]
pest or weed control at 0.16 ppm [1, 11]: 0%
Kill rate after 6 days, With penetrant and AS [1, 13]: 70%
pest or weed control at 0.16 ppm [2]: 0%
Kill rate after 6 days, With penetrant and AS [2, 13]: 50%

O=[N+]([O-])/N=C1\NCCN1Cc1ccc(Cl)nc1 [Ia-7, imidacloprid, reference compound]
pest or weed control at 4 ppm [1, 11]: 15%
Kill rate after 6 days, With penetrant and AS ([1]; active compound 4 ppm, 6 days): 95%
pest or weed control at 4 ppm [2]: 40%
Kill rate after 6 days, With penetrant and AS ([2]; active compound 4 ppm, 6 days): 100%

CN1COCN(Cc2cnc(Cl)s2)/C1=N/[N+](=O)[O-] [Ia-1, thiamethoxam, reference compound]
pest or weed control at 0.16 ppm [1, 11]: 0%
Kill rate after 6 days, With penetrant and AS [1, 13]: 40%
pest or weed control at 0.16 ppm [2]: 10%
Kill rate after 6 days, With penetrant and AS [2, 13]: 85%

C=CCN(CCN/C(=C/[N+](=O)[O-])SC)Cc1ccc(Cl)nc1 [Ih-1]
pest or weed control at 0.8 ppm [1, 8]: 5%
Kill rate after 6 days, With penetrant and AS [1, 9]: 95%
pest or weed control at 0.8 ppm [2, 15]: 20%
Kill rate after 6 days, With penetrant and AS [2, 9]: 98%

CON/C(=N\[N+](=O)[O-])NCc1cnc(Cl)s1 [(Ib-3)]
Kill rate after 3 days, With AS 1 g/l ([6]; with ammonium sulphate 1 g/l): 99%
Kill rate after 3 days, Without AS ([6]; without ammonium sulphate): 77%

CN(Cc1ccc(Cl)nc1)C1=CC(=O)OC1 [If-1]
pest or weed control at 0.16 ppm [1, 12]: 30%
Kill rate after 6 days, With penetrant and AS [1, 13]: 75%
pest or weed control at 0.16 ppm [2, 14]: 20%
Kill rate after 6 days, With penetrant and AS [2, 13]: 85%
Kill rate after 7 days, With penetrant and AS [7, 10]: 70%
Kill rate after 7 days, Without penetrant and AS ([7]; without penetrant and AS): 0%

CN1CN(C)/C(=N\[N+](=O)[O-])N(Cc2cnc(Cl)s2)C1 [Ia-9, AKD-1022]
pest or weed control at 0.8 ppm [1, 11]: 80%
Kill rate after 6 days, With penetrant and AS [1, 9]: 100%
pest or weed control at 0.8 ppm [2]: 70%
Kill rate after 6 days, With penetrant and AS [2, 9]: 100%

O=[N+]([O-])/N=C1\NCCN1Cc1cnc(Cl)s1 [Ia-8, imidaclothiz, reference compound]
pest or weed control at 0.8 ppm [1, 11]: 65%
Kill rate after 6 days, With penetrant and AS [1, 9]: 95%

CN/C(=N\[N+](=O)[O-])NCC1CCOC1 (stereo not drawn) [Ia-4, dinotefuran, reference compound]
pest or weed control at 0.8 ppm [1, 11]: 0%
Kill rate after 6 days, With penetrant and AS [1, 9]: 35%
pest or weed control at 4 ppm [2]: 10%
Kill rate after 6 days, With penetrant and AS ([2]; active compound 4 ppm, 6 days): 80%

C/C(=N\C#N)N(C)Cc1ccc(Cl)nc1 [Ia-5, acetamiprid, reference compound]
pest or weed control at 0.16 ppm [2]: 0%
Kill rate after 6 days, With penetrant and AS [2, 13]: 90%
